Where no end group is shown, it is not given here.
Tests used:
GH secretion [1] = conditions: cited from earlier work
GH secretion [2] = experiment: Provocative tests for GH secretion in short children (clonidine, propranolol plus exercise, insulinic hypoglycemia, placebo plus GHRH, clonidine plus GHRH); type: in vivo
From the text: Twenty-four children (17 boys and 7 girls) with stature below the third percentile (P3), participated in the study with informed consent (parent and child). Ages of the children ranged from 7 to 13.9 years. In all but seven of the children, weight was more than or equal to P3. […] Two children had received prophylactic cranial irradiation due to brain tumors, five and three years before the study. […] All children had been previously studied for their GH insufficiency. Studies included growth velocity, bone age, classical provocative tests for GH secretion (i.e. clonidine, insulin hypoglycemia and propranolol plus exercise), plasma somatomedin C (Sm C) (Insulin Growth Factor-I (IGF-I)) analysis, and analysis of the spontaneous pattern of nocturnal GH secretion.
Studies commenced at 09.00 h after an overnight fast and bed rest and thirty minutes after the insertion of a nonthrombogenic catheter for blood withdrawal in a forearm vein. The study consisted of administering clonidine (Catapresan, Boehringer Ingelheim, Spain) orally at 150 micrograms/m^2 at time 0, followed by administering GHRH (GRF 1-29, Serono, Spain) as an intravenous bolus at 1 microgram/kg at time 60 minutes. An additional control for short children consisted of administering a placebo at time 0, followed by administering GHRH at time 60 minutes. Blood samples for GH analysis (RIA, BioMerieux, France) were taken at 0 and 60 minutes and at 15 minute intervals for one hour following GHRH administration. The mean intra-assay coefficient of variation was 5.7, 3.2 and 4.3% at mean GH concentrations of 1.5, 10 and 22 micrograms/L respectively. To avoid interassay variations, all samples from a subject were run in the same assay.
To confirm the uniqueness of such combined clonidine plus GHRH test in the differentiation of GH-deficient states, the theoretical GH responses to this test in short children were calculated on the basis of the equation obtained from the multiple regression analysis relating chronological and bone age with the amplitude of GH peaks in normal children. […] Responses between the -20 to +20% range were considered to be normals, as they fitted between the standard deviation from the mean in the group of normal children.

[3] = Growth velocity of short children treated with GH; type: in vivo; conditions: three children treated with GH for 9 months; increased from 3 cm/yr
From the text: Twenty-four children (17 boys and 7 girls) with stature below the third percentile (P3), participated in the study with informed consent (parent and child). Ages of the children ranged from 7 to 13.9 years. In all but seven of the children, weight was more than or equal to P3. […] Two children had received prophylactic cranial irradiation due to brain tumors, five and three years before the study. Three children had been treated with GH for 9 months; their growth velocity increased during this therapy from 3 to 8 cm/yr. All children had been previously studied for their GH insufficiency. Studies included growth velocity, bone age, classical provocative tests for GH secretion (i.e. clonidine, insulin hypoglycemia and propranolol plus exercise), plasma somatomedin C (Sm C) (Insulin Growth Factor-I (IGF-I)) analysis, and analysis of the spontaneous pattern of nocturnal GH secretion. […] Mean (±SEM) plasma Sm C was 488±376 U/L. Mean (±SEM) growth velocity was 3.7±0.9 cm/yr.

[4] = patient group 1, short children
[5] = patient group 2, short children
[6] = patient group 3, short children
[7] = patient group 4, short children
[8] = patient group 5, short children

Molecule	Number of positive (+, >10 μg/L) GH responses (GH secretion [2]; [4])	Number of positive (+, >10 μg/L) GH responses (GH secretion [2]; [5])	Number of positive (+, >10 μg/L) GH responses (GH secretion [2]; [6])	Number of positive (+, >10 μg/L) GH responses (GH secretion [2]; [7])	Number of positive (+, >10 μg/L) GH responses (GH secretion [2]; [8])	further results
Clc1cccc(Cl)c1NC1=NCCN1 [clonidine, 2-(2,6-dichloroanilino)-2-imidazoline]	0	4	2	3	1	Effect on GHRH-induced GH secretion (GH secretion [1]; normal subjects, short, normal children and adults (literature)): enhances the GH response to GHRH; Share of children appearing GH-deficient on the basis of a low GH response (<10 μg/L) to the provocative test (GH secretion [2]; 24 short children, earlier work-up): 50%; Number of negative (-, <10 μg/L) GH responses (GH secretion [2]; [6]): 2; Effect of pretreatment with clonidine on the GH response to GHRH (GH secretion [2]; patient group 5, malnourished children): did not significantly enhance the GH response to GHRH
CN(C)C(=O)Oc1ccc[n+](C)c1 [pyridostigmine]						Usefulness as treatment of short stature (GH secretion [1]; literature (Ghigo 1989)): does not represent a useful treatment of short stature
GH: exogenous growth hormone given to three children for 9 months						Growth velocity during GH therapy [3]: 8 cm/yr
GHRH: growth hormone-releasing hormone, used as GRF 1-29 (Serono, Spain), intravenous bolus (YADAIFTNSYRKVLGQLSARKLLQDIMSR; ends and bridges not checked; UniProt P01286 32-60, looked up, fragment)	2	3	3	3	3	Number of patients with deficient GHRH-induced GH response (GH peak <10 μg/L) (GH secretion [2]; 24 short children, pretreatment with placebo): 9 patients; Number of negative (-, <10 μg/L) GH responses (GH secretion [2]; [4]): 4; Number of negative (-, <10 μg/L) GH responses (GH secretion [2]; [5]): 2; Mean GH peak response to GHRH (GH secretion [2]; short children, placebo at time 0, GHRH i.v. bolus at 60 minutes): 19.5 ± 15.7 µg/L

Reference: patent US5428013A, “Differential diagnosis and treatment of the states of growth hormone insufficiency (or deficiency) with an alpha-2-adrenergic agonist and a growth hormone releasing peptide” (priority 1992, dated 1995)
